Data on 25 molecules can be found in patent US8471005B2 (Cephalon, Inc., priority 2008, dated 2013).

The target of one assay is T1, ALK (Homo sapiens, UniProt Q9UM73).
T1 construct: host or cells: baculovirus expression system
Nature of the assay: ALK Kinase Assay (ELISA/TRF, PLC-γ substrate). The assay is classed as biochemical. To be noted: ALK kinase inhibition, 1 μM ATP; read-out: ALK Potency. The method, boiled down: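 Read-out is time-resolved fluorescence from a Eu-N1-labeled PT66 antibody that binds phosphorylated PLC-γ, the substrate coated at 10 μg/mL in TBS. ALK at 30 ng/ml starts the reaction, which runs 15 minutes at 37° C.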
In general terms: ELISA stands for enzyme-linked immunosorbent assay.

In the next assay the target is T2, JAK2 (Homo sapiens, UniProt O60674).
T2 construct: host or cells: baculovirus expression system
Nature of the assay: Recombinant Human JAK2 Kinase Assay (TRF). The assay is classed as biochemical. To be noted: JAK2 kinase inhibition, 0.2 μM ATP; read-out: JAK2 Potency. The method, boiled down: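 Europium-labelled PY100 antibody reported tyrosine phosphorylation of a Neutravidin-captured biotinyl 15-mer peptide by JAK2 (baculovirus-expressed, 15 ng/ml). Conditions: 20 mM HEPES pH 7.2, 0.2 μM ATP, 1 mM MnCl2, 0.1% BSA, DMSO 2.5% final, 20 min at room temperature.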

T1 sequence (Q9UM73 19-1620): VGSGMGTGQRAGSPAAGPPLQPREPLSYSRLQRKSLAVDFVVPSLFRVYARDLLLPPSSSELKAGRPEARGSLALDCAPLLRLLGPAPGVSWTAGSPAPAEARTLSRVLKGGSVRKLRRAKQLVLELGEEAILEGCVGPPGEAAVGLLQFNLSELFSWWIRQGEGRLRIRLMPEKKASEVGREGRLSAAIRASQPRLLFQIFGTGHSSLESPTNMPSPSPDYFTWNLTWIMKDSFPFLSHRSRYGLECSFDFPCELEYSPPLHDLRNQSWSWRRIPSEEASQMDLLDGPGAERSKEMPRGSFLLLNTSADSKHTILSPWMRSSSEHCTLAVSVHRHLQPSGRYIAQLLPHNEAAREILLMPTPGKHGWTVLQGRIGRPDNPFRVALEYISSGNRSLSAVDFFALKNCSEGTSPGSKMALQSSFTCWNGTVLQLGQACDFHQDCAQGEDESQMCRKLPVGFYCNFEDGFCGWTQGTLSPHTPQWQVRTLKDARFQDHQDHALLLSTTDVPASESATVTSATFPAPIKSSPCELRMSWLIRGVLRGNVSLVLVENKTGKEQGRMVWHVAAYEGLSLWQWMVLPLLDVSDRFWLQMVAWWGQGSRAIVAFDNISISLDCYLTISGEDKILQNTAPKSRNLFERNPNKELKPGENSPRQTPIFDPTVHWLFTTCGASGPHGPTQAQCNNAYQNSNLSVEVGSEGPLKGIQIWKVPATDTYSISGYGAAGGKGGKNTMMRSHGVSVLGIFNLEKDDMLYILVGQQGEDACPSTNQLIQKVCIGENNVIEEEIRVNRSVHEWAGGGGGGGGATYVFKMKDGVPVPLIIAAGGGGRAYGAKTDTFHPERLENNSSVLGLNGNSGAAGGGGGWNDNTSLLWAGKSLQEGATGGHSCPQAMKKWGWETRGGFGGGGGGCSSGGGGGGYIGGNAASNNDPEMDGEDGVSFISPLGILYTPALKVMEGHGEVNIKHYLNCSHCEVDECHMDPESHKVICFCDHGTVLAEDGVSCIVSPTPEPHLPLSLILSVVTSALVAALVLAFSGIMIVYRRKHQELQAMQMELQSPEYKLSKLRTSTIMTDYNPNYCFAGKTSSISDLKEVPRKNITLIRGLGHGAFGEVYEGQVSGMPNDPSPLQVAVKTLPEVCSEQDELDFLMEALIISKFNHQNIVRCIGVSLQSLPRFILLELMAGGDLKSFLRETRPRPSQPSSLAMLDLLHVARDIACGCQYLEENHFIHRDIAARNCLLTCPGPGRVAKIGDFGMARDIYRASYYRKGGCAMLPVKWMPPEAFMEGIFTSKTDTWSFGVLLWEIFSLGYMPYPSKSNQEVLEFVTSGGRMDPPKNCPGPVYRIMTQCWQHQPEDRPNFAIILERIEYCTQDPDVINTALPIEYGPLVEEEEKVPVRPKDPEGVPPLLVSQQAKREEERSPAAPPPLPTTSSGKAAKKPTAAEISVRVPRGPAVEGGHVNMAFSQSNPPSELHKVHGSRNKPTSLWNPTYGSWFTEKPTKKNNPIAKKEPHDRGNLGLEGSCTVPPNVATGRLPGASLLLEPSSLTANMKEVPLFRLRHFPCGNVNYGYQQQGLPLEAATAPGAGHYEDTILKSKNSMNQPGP
T2 sequence (O60674 whole entry): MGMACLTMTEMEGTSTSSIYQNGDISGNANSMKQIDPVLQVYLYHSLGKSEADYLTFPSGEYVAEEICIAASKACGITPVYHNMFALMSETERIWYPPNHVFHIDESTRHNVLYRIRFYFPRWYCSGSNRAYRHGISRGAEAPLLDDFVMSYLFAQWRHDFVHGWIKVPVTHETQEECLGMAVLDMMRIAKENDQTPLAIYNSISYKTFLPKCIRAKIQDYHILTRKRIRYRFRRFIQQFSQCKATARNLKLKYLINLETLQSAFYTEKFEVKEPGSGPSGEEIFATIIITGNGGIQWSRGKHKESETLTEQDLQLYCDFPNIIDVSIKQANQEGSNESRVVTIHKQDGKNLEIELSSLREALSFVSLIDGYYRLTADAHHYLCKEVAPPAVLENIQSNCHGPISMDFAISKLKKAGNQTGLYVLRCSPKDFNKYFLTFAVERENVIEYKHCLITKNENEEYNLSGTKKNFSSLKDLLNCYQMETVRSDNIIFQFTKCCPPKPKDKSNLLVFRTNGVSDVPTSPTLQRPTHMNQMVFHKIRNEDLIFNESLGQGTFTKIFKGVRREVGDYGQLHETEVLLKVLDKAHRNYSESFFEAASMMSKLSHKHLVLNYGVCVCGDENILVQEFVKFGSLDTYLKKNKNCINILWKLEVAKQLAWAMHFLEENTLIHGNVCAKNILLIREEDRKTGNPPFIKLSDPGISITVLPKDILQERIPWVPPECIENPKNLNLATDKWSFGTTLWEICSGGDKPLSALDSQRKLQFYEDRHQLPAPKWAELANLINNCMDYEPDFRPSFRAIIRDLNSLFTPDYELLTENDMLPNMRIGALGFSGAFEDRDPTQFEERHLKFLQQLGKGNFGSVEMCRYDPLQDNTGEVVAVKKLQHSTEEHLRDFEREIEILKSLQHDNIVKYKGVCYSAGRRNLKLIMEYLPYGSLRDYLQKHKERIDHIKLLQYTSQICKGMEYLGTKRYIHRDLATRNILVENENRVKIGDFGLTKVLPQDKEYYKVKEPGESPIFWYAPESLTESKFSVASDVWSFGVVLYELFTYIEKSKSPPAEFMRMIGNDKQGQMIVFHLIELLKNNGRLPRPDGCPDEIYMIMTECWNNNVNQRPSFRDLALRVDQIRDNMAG

As for `COc1cc(C2=CCNCC2)ccc1Nc1ncc2ccc(-c3ccccc3N(C)S(C)(=O)=O)n2n1` [Example 742, N-(2-{2-[2-Methoxy-4-(1,2,3,6-tetrahydro-pyridin-4-yl)-phenylamino]-pyrrolo[2,1-f][1,2,4]triazin-7-yl}-phenyl)-N-methyl-methanesulfonamide], the IC50 at ALK was < 0.1 µM; on JAK2, 0.1 to 1 µM.

`CCN1CCC(O)(c2ccc(Nc3ncc4ccc(-c5ccccc5N(C)S(C)(=O)=O)n4n3)c(OC)c2)CC1` [Example 743, N-(2-{2-[4-(1-Ethyl-4-hydroxy-piperidin-4-yl)-2-methoxy-phenylamino]-pyrrolo[2,1-f][1,2,4]triazin-7-yl}-phenyl)-N-methyl-methanesulfonamide]: the results for the IC50 at ALK and on JAK2 were < 0.1 µM and 1 to 10 µM, respectively.

Take `CCN1CC=C(c2ccc(Nc3ncc4ccc(-c5ccccc5N(C)S(C)(=O)=O)n4n3)c(OC)c2)CC1` [Example 744, N-(2-{2-[4-(1-Ethyl-1,2,3,6-tetrahydro-pyridin-4-yl)-2-methoxy-phenylamino]-pyrrolo[2,1-f][1,2,4]triazin-7-yl}-phenyl)-N-methyl-methanesulfonamide]: the IC50 is < 0.1 µM at ALK and 1 to 10 µM at JAK2.

In the case of `COc1ccc(-c2ccc3cnc(Nc4ccc(C5CCN(CC(N)=O)CC5)cc4OC)nn23)c(OC)c1` [Example 745, 2-(4-{4-[7-(2,4-Dimethoxy-phenyl)-pyrrolo[2,1-f][1,2,4]triazin-2-ylamino]-3-methoxy-phenyl}-piperidin-1-yl)-acetamide], the IC50 on ALK is < 0.1 µM; on JAK2, 1 to 10 µM.

Turning to `COc1cc(C2CCN(CC(N)=O)CC2)ccc1Nc1ncc2ccc(-c3cc(F)c(F)cc3N(C)S(C)(=O)=O)n2n1` [Example 746, 2-[4-(4-{7-[4,5-Difluoro-2-(methanesulfonyl-methyl-amino)-phenyl]-pyrrolo[2,1-f][1,2,4]triazin-2-ylamino}-3-methoxy-phenyl)-piperidin-1-yl]-acetamide], the IC50 at ALK was < 0.1 µM; on JAK2, 1 to 10 µM.

In the case of `Brc1ccc(Nc2ncc3cc4ccccc4n3n2)cc1` [Example 751, (4-Bromo-phenyl)-[1,2,4]triazino[1,6-a]indol-2-yl-amine], the IC50 on ALK and at JAK2 was > 10 µM in each case.

`COc1ccc(Nc2ncc3cc4ccccc4n3n2)cc1` [Example 752, (4-Methoxy-phenyl)-[1,2,4]triazino[1,6-a]indol-2-yl-amine]: the figures for the IC50 on ALK and at JAK2 were > 10 µM and < 0.1 µM, respectively.

Take `COc1cc(N2CCN(C[C@H](C)O)CC2)ccc1Nc1ncc2ccc(-c3ccccc3OC)n2n1` [Example 753, (S)-1-(4-{3-Methoxy-4-[7-(2-methoxy-phenyl)-pyrrolo[2,1-f][1,2,4]triazin-2-ylamino]-phenyl}-piperazin-1-yl)-propan-2-ol]: the IC50 at ALK and on JAK2 was < 0.1 µM in each case.

For the molecule `COc1cc(N2CCN(C[C@@H](C)O)CC2)ccc1Nc1ncc2ccc(-c3ccccc3OC)n2n1` [Example 754, (R)-1-(4-{3-Methoxy-4-[7-(2-methoxy-phenyl)-pyrrolo[2,1-f][1,2,4]triazin-2-ylamino]-phenyl}-piperazin-1-yl)-propan-2-ol], the IC50 on ALK and at JAK2 was < 0.1 µM throughout.

For the molecule `COc1cc(N2CCN(C[C@H](C)O)CC2)ccc1Nc1ncc2ccc(-c3cc(Cl)ccc3OC)n2n1` [Example 755, (S)-1-(4-{4-[7-(5-Chloro-2-methoxy-phenyl)-pyrrolo[2,1-f][1,2,4]triazin-2-ylamino]-3-methoxy-phenyl}-piperazin-1-yl)-propan-2-ol], the IC50 on ALK and at JAK2 was < 0.1 µM each time.

Turning to `COc1cc(N2CCN(C[C@@H](C)O)CC2)ccc1Nc1ncc2ccc(-c3cc(Cl)ccc3OC)n2n1` [Example 756, (R)-1-(4-{4-[7-(5-Chloro-2-methoxy-phenyl)-pyrrolo[2,1-f][1,2,4]triazin-2-ylamino]-3-methoxy-phenyl}-piperazin-1-yl)-propan-2-ol], the IC50 on ALK and at JAK2 was < 0.1 µM each time.

For the molecule `COc1cc(N2CCN(C[C@@H](O)CO)CC2)ccc1Nc1ncc2ccc(-c3cc(Cl)ccc3OC)n2n1` [Example 757, (R)-3-(4-{4-[7-(5-Chloro-2-methoxy-phenyl)-pyrrolo[2,1-f][1,2,4]triazin-2-ylamino]-3-methoxy-phenyl}-piperazin-1-yl)-propane-1,2-diol], the values for the IC50 on ALK and at JAK2 were < 0.1 µM and 0.1 to 1 µM, respectively.

As for `COc1cc(C2CCN(C[C@H](O)CO)CC2)ccc1Nc1ncc2ccc(-c3ccccc3OC)n2n1` [Example 761, (S)-3-(4-{3-Methoxy-4-[7-(2-methoxy-phenyl)-pyrrolo[2,1-f][1,2,4]triazin-2-ylamino]-phenyl}-piperidin-1-yl)-propane-1,2-diol], the results for the IC50 on ALK and at JAK2 were < 0.1 µM and 0.1 to 1 µM, respectively.

For `COc1cc(C2CCN(C)CC2)ccc1Nc1ncc2ccc(-c3ccccc3OC)n2n1` [Example 762, [2-Methoxy-4-(1-methyl-piperidin-4-yl)-phenyl]-[7-(2-methoxy-phenyl)-pyrrolo[2,1-f][1,2,4]triazin-2-yl]-amine], the IC50 at ALK and on JAK2 was < 0.1 µM each time.

For `COc1cc(N2CCC(N(C)C)C2)ccc1Nc1ncc2ccc(-c3ccccc3OC)n2n1` (centres unmarked) [Example 763, [4-(3-Dimethylamino-pyrrolidin-1-yl)-2-methoxy-phenyl]-[7-(2-methoxy-phenyl)-pyrrolo[2,1-f][1,2,4]triazin-2-yl]-amine], the IC50 on ALK and on JAK2 was < 0.1 µM throughout.

For the molecule `COc1ccccc1-c1ccc2cnc(Nc3ccc4c(c3)N3CCC4CC3)nn12` [Example 764, (3,4-Dihydro-2H-1,4-ethano-quinolin-7-yl)-[7-(2-methoxy-phenyl)-pyrrolo[2,1-f][1,2,4]triazin-2-yl]-amine], the IC50 at ALK and at JAK2 was < 0.1 µM throughout.

As to `COc1cc(N2CCCN(C)CC2)ccc1Nc1ncc2ccc(-c3ccccc3OC)n2n1` [Example 765, [2-Methoxy-4-(4-methyl-[1,4]diazepan-1-yl)-phenyl]-[7-(2-methoxy-phenyl)-pyrrolo[2,1-f][1,2,4]triazin-2-yl]-amine], the IC50 was < 0.1 µM on ALK and 0.1 to 1 µM at JAK2.

For the molecule `COc1cc(N2CCCN(C[C@@H](C)O)CC2)ccc1Nc1ncc2ccc(-c3ccccc3OC)n2n1` [Example 766, (R)-1-(4-{3-Methoxy-4-[7-(2-methoxy-phenyl)-pyrrolo[2,1-f][1,2,4]triazin-2-ylamino]-phenyl}-[1,4]diazepan-1-yl)-propan-2-ol], the IC50 at ALK and on JAK2 was < 0.1 µM in each case.

Turning to `COc1cc(C2CCN(C[C@H](O)CO)CC2)ccc1Nc1ncc2ccc(-c3ccccc3N(C)S(C)(=O)=O)n2n1` [Example 769, N-[2-(2-{4-[1-((S)-2,3-Dihydroxy-propyl)-piperidin-4-yl]-2-methoxy-phenylamino}-pyrrolo[2,1-f][1,2,4]triazin-7-yl)-phenyl]-N-methyl-methanesulfonamide], the IC50 was < 0.1 µM on ALK and 0.1 to 1 µM at JAK2.

On to `COc1cc(N2CCCN(C)CC2)ccc1Nc1ncc2ccc(-c3ccccc3N(C)S(C)(=O)=O)n2n1` [Example 771, N-(2-{2-[2-Methoxy-4-(4-methyl-[1,4]diazepan-1-yl)-phenylamino]-pyrrolo[2,1-f][1,2,4]triazin-7-yl}-phenyl)-N-methyl-methanesulfonamide], for which the IC50 is < 0.1 µM on ALK and 0.1 to 1 µM on JAK2.

With `COc1cc(N2CCCN(C[C@@H](C)O)CC2)ccc1Nc1ncc2ccc(-c3ccccc3N(C)S(C)(=O)=O)n2n1` [Example 772, N-[2-(2-{4-[4-((R)-2-Hydroxy-propyl)-[1,4]diazepan-1-yl]-2-methoxy-phenylamino}-pyrrolo[2,1-f][1,2,4]triazin-7-yl)-phenyl]-N-methyl-methanesulfonamide], the IC50 at ALK was < 0.1 µM; on JAK2, 0.1 to 1 µM.

Regarding `COc1cc(N2CCCN(C[C@H](O)CO)CC2)ccc1Nc1ncc2ccc(-c3ccccc3N(C)S(C)(=O)=O)n2n1` [Example 773, N-[2-(2-{4-[4-((S)-2,3-Dihydroxy-propyl)-[1,4]diazepan-1-yl]-2-methoxy-phenylamino}-pyrrolo[2,1-f][1,2,4]triazin-7-yl)-phenyl]-N-methyl-methanesulfonamide], the IC50 on ALK is < 0.1 µM; at JAK2 it was 0.1 to 1 µM.

Consider `COc1ccc(C2CCN(C)CC2)cc1Nc1ncc2ccc(-c3ccccc3N(C)S(C)(=O)=O)n2n1` [Example 774, N-(2-{2-[2-Methoxy-5-(1-methyl-piperidin-4-yl)-phenylamino]-pyrrolo-[2,1-f][1,2,4]triazin-7-yl}-phenyl)-N-methyl-methanesulfonamide], for which the IC50 is < 0.1 µM on ALK and 0.1 to 1 µM on JAK2.

For the molecule `COc1ccccc1-c1ccc2cnc(Nc3cccc(C4CCN(C)CC4)c3OC)nn12` [Example 775, [2-Methoxy-3-(1-methyl-piperidin-4-yl)-phenyl]-[7-(2-methoxy-phenyl)-pyrrolo[2,1-f][1,2,4]triazin-2-yl]-amine], the IC50 on ALK and at JAK2 was < 0.1 µM in each case.

Take `COc1c(Nc2ncc3ccc(-c4ccccc4N(C)S(C)(=O)=O)n3n2)cccc1C1CCN(C)CC1` [Example 776, N-(2-{2-[2-Methoxy-3-(1-methyl-piperidin-4-yl)-phenylamino]-pyrrolo [2,1-f][1,2,4]triazin-7-yl}-phenyl)-N-methyl-methanesulfonamide]: the IC50 on ALK and on JAK2 was < 0.1 µM throughout.
